According to patent US20060074109A1, “Use of inhibitors of 24-hydroxylase in the treatment of cancer” (Sapphire Therapeutics, Inc., priority 2004, published 2006):

Tests used:
Format in all cases: cell-based, human
[1] = system: 24OHase mRNA in OVCAR-3 cells; experiment: Quantitative RT-PCR of 24OHase mRNA; details: 100 nM
Protocol: Ethanol was used as a vehicle, and it was also added to the control cells. For RNA extraction, the cells were collected 4, 6 and 24 hr after the treatment with vitamin D compound or vehicle. RNA extractions were done with TRIZOL reagent (GIBCO Invitrogen Corporation, Paisley, UK). The integrity of RNA samples was confirmed on gel electrophoresis. […] The reactions for 24-hydroxylase were performed in the LightCycler instrument (Roche Diagnostics, Basel, Switzerland) from 300 ng total RNA. PBGD (human porphobilinogendeaminase) mRNA was used as an […] control. […] Nucleotides, Tth DNA polymerase (DNA polymerase and reverse transcriptase activity), SYBR Green I and reaction buffer were included in the LightCycler-RNA Master SYBR Green I kit (Roche Diagnostics). […] Cell. […] Detection of fluorescent product was performed at the end of the extension step of each cycle. To verify the specific products, melting curve analysis and gel electrophoresis were done. The data were quantified by the Fit Points method with LightCycler Data Analysis software. […] Hormone treatments and RT-PCR were done twice.

UT-OC-4 cells = experiment: Cell growth assay, crystal violet, 11 days; details: 100 nM alone, 11 days
Protocol: (§1) The human ovarian adenocarcinoma cell line, OVCAR-3 (ATCC, Manassas, Va.) was maintained, as recommended by the supplier, in RPMI 1640 medium (Sigma Aldrich, St. Louis, Mo.) supplemented with 10% FBS, 10 μg/ml insulin, 0.25% glucose and antibiotics (100 IU/ml penicillin, 100 μg/ml streptomycin). Human ovarian adenocarcinoma cell lines UT-OC-1, UT-OC-2, UT-OC-3, UT-OC-4, UT-OC-5 (Grenman, S., Engblom, P., Rantanen, V., Klemi, P. and Isola, J., “Cytogenetic Characterization of Five New Ovarian Carcinoma Cell Lines,” Acta Obstet. Gynecol. Scand., 76:83 (1997)) and SK-OV-3 and a human keratinocyte cell line HaCaT were grown in DMEM (Sigma Aldrich) with 10% FBS and antibiotics (100 IU/ml penicillin, 100 μg/ml streptomycin), and monkey kidney COS cells were maintained in DMEM/F12 (Sigma Aldrich) with 5% FBS. All cell lines were kept at 37° C. in a humidified 95% air/5% CO2 incubator.
(§2) When OVCAR-3 cells were on the logarithmic growth phase (70% confluent) the growth assay was started. For cell growth assay, 2,000 cell/200 μl/well were plated on 96-well culture plates. […] Ethanol was used as a vehicle, and it was also included in the control. The medium containing ethanol vehicle and/or hormones were changed to a fresh one every third day. Cell growth samples were taken 0, 1, 3, 5, 7, 9 and 11 days after the treatment.
(§3) Relative cell numbers were quantified as described previously (Kueng W, Silber E, Eppenberger U. Quantification of cells cultured on 96-well plates. Anal. Biochem., 182:16-9 (1989)). Cells were fixed on the bottom of the wells by addition of 10 μl of 11% glutaraldehyde solution in 0.1% phosphate buffer to 100 μl of medium. The plate was shaken 500 cycles/min for 15 min, washed 3 times by submersion in de-ionised water and air-dried. Fixed cells were stained with 0.1% solution of crystal violet dissolved in de-ionised water. After 20 min incubation, excess dye was removed by carefully washing with de-ionised water. The plate was air-dried prior to a bound dye solubilisation in 100 μl of 10% acetic acid. Relative cell number was given as absorbance units by measuring the optical density (590 nm) from each well using Victor 1420 multilabel counter (Wallac, Turku, Finland). Six determinations were used to calculate the mean optical density ±SD in each concentration at each time point. The absorbance value of day 0 (an overnight culture of 2,000 cells/well) was set as 0 by subtracting it from each value obtained from adjacent time-point measurements (days 1-11), and based on these values growth curves were created. Experiments were repeated 3-5 times. Day 11 was used to compare the effect of hormone treatments and 24OHase inhibitor. Statistical analyses were done using Student's t-test.
(§4) Cell growth samples were obtained after 11 days treatment.

UT-OC-1 cells = experiment: Cell growth assay, crystal violet, 11 days; details: 100 nM alone, 11 days
Protocol: as §1, §2, §3, §4

OVCAR-3 cells = experiment: Cell growth assay, crystal violet, 11 days; details: 11 days
Protocol: as §1, §2, §3
The cell growth response was determined as described in Experiment I. Briefly, cells were treated with indicated hormone concentrations or combinations of hormone and 24OHase inhibitor (VID400) for 11 days. The growth medium and hormones were changed to a fresh one every third day. After the treatment period, cells were fixed, stained with crystal violet, and the optical density (590 nm) was determined. The cell growth is presented as a percentage of ethanol-treated cells. The values represent the mean of 3 separate experiments ±SD. (*p<0.05, **p<0.001, ***p<0.0001, Student's t-test).
as §4

[2] = system: 24OHase mRNA in UT-OC-5 cells; experiment: RPA and RT-PCR of 24OHase induction; details: 24 h
Source text: (§5) Briefly, ^32P-labelled ([α-^32P]UTP, Amersham Biosciences, Buckinghamshire, UK) RNA-probes were synthesised using in vitro transcription reaction (In vitro transcription reaction kit, Pharmingen, San Diego, Calif.) using two different template sets.
(§6) RPLP0 was used as reference gene.

[3] = system: 24OHase mRNA in ovarian cancer cell lines; experiment: RPA and RT-PCR of 24OHase induction, all cell lines; details: 100 nM, 24 h, every cell line
Source text: as §5, §6

[4] = system: VDR mRNA in UT-OC-1 cells; experiment: RPA and quantitative RT-PCR of receptor mRNA; details: 100 nM, 24 hour
Source text: as §5, §6

[5] = system: RARγ mRNA in SK-OV-3 cells; experiment: RPA and quantitative RT-PCR of receptor mRNA; details: 100 nM, 24 hour
Source text: as §5, §6

[6] = system: RARγ mRNA in UT-OC-1 cells; experiment: RPA and quantitative RT-PCR of receptor mRNA; details: 100 nM, 24 hour
Source text: as §5, §6

[7] = system: RARα mRNA in SK-OV-3 cells; experiment: RPA and quantitative RT-PCR of receptor mRNA; details: 100 nM, 24 hour
Source text: as §5, §6

C=C1/C(=C\C=C2/CCC[C@]3(C)[C@@H]([C@H](C)/C=C/C=C/C(O)(CC)CC)CC[C@@H]23)C[C@@H](O)C[C@@H]1O [EB 1089]
induction of 24OHase mRNA expression ([1]; 6 hr treatment): 600 fold | induction of 24OHase mRNA expression ([1]; 24 hr treatment): 1,000 fold | effect on cell growth (UT-OC-4 cells): did not restrain cell growth | effect on cell growth (UT-OC-1 cells): did not inhibit the cell growth | inhibition at 0.001 µM (OVCAR-3 cells; Homo sapiens, OVCAR-3, 264 h, 1 nM, read-out: inhibited growth compared to the control): 73% | inhibition at 0.1 µM (OVCAR-3 cells; Homo sapiens, OVCAR-3, 264 h, 100 nM, read-out: inhibited growth compared to the control): 84% | effect on cell proliferation (OVCAR-3 cells; alone (10 or 100 nM), Experiment V): markedly inhibited the proliferation | 24OHase induction relative to 100 nM 1,25(OH)2D3 [2]: more than two-fold stronger inducer | induction of 24OHase expression compared with 1,25(OH)2D3 [3]: more effective in inducing 24OHase expression | VDR expression [4]: 47±8 % of control | increase of RARγ compared to control [5]: 51±7% | up regulation of RARγ compared to control [6]: 47±7% | RARα expression [7]: 134±10 % of control
